We go through one compound from US20130261045A1, “GREEN TEA POLYPHENOL ALPHA SECRETASE ENHANCERS AND METHODS OF USE” (UNIVERSITY OF SOUTH FLORIDA, priority 2005, published 2013).

Structures are written as SMILES.

In test [1] the test system is ADAM10. The experiment in a line: Western blot of ADAM10 maturation in parental (non-transfected) N2a cells. Format: cell-based, murine. The note with it: various doses, 8 h. A general note: A western blot detects proteins with antibodies after separation by electrophoresis.
Method: Cultured cells were lysed in ice-cold lysis buffer described above, and an aliquot corresponding to 50 μg of total protein was electrophoretically separated using 16.5% Tris-tricine gels. Electrophoresed proteins were then transferred to PVDF membranes (Bio-Rad, Richmond, Calif.), washed in ddH2O, and blocked for 1 h at ambient temperature in Tris-buffered saline (TBS; Bio-Rad) containing 5% (w/v) non-fat dry milk. After blocking, membranes were hybridized for 1 h at ambient temperature with various primary antibodies. Membranes were then washed 3 times for 5 min each in ddH2O and incubated for 1 h at ambient temperature with the appropriate HRP-conjugated secondary antibody (1:1,000, Pierce Biotechnology, Inc. Rockford, Ill.). All antibodies were diluted in TBS containing 5% (w/v) of non-fat dry milk. Blots were developed using the luminol reagent (Pierce Biotechnology). Densitometric analysis was done using the Fluor-S MultiImager™ with Quantity One™ software (Bio-Rad). […] Antibodies used for Western blot included: antibody 369 (which recognizes the carboxyl-terminus of APP; 1:1,500), clone 22C11 (against the amino-terminus of APP; 1:1,500), clone 6E10 (against amino acids 1-17 of Aβ; 1:1,500), anti-ADAM9 (1:500), and antibodies against ADAM10 (1:500), ADAM17 (1:500) or actin (1:1,500; as an internal reference control).
Test [2] deals with APP cleavage processing. The experiment in a line: Western blot/immunoprecipitation of APP cleavage (CTFs, sAPP-α, holo APP) in APP-transfected N2a cells. Type of test: cell-based, murine. On the procedure:
Cell cultured supernatants were collected and cell lysates were prepared from these cultured cells.
Cultured cells and mouse brain were lysed in ice-cold lysis buffer described above, and an aliquot corresponding to 50 μg of total protein was electrophoretically separated using 16.5% Tris-tricine gels. Electrophoresed proteins were then transferred to PVDF membranes (Bio-Rad), washed in dH2O, and blocked for 1 hour at ambient temperature in Tris-buffered saline (TBS; Bio-Rad) containing 5% (w/v) for non-fat dry milk. After blocking, membranes were hybridized for 1 hour at ambient temperature with various antibodies, including against the C- (369), N-terminus of APP (22C11), the N-terminus of Aβ (6E10), and ADAM10 and TACE (Calbiochem). Membranes were then washed 3× for 5 min each in dH2O and incubated for 1 hour at ambient temperature with the appropriate HRP-conjugated secondary antibody (1:1,000, Pierce Biotechnology, Inc. Rockford, Ill.). All antibodies were diluted in TBS containing 5% (w/v) of non-fat dry milk. Blots were developed using the luminal reagent (Pierce Biotechnology). Densitometric analysis was done using the Fluor-S Multimager™ with Quantity One™ software (Bio-Rad). Immunoprecipitation was performed for detection of sAPP-α, sAPP-β and Aβ by incubating 200 μg of total protein of each sample with 6E10 (1:100; Signet) or 22C11 (1:100; Roche, Basel, Switzerland) overnight with gentle rocking at 4° C., and 10 μL of 50% protein A-Sepharose beads were then added to the sample (1:10; Sigma) prior to gentle rocking for an additional 4 hours at 4° C. Following washes with 1× cell lysis buffer, samples were subjected to Western blot as described above. Antibodies used for Western blot included antibody 369 (1:1,000), anti-C-terminal APP antibody (1:500; Chemicon, Temecula, Calif.), BAM-10 (1:1,000; Sigma), 6E10 (1:1,000; Signet) or anti-Actin antibody (1:1,500; as an internal reference control; Roche). α-, β- and γ-secretase activities were quantified in cell lysates and mouse brain homogenates using available kits based on secretase-specific peptides conjugated to fluorogenic receptor molecules (R&D Systems, Minneapolis, Minn.).

The subject of test [3] is Aβ generation. As to the kind of experiment: Aβ ELISA, transgenic APPsw mouse-derived primary neuronal cells (Example 1). Type of test: cell-based. To be noted: 20 μM, FIG. 1B. On the procedure: Aβ1-40 and 1-42 peptides were analyzed in the conditioned media from SweAPP N2a cells (FIGS. 1A, 1C, 1D) and transgenic APPsw mouse-derived primary neuronal cells (FIG. 1B) by ELISA (n=3 for each condition).
TAPI-1, β and γ-secretase inhibitors were obtained from Calbiochem (San Diego, Calif.). Green tea extract (75% polyphenols) was obtained from the Vitamin Shoppe™ (North Bergen, N.J.).
Cultured cells were lysed in ice-cold-lysis buffer (20 mM Tris, pH 7.5, 150 mM NaCl, 1 mM EDTA, 1 mM EGTA, 1% v/v Triton X-100, 2.5 mM sodium pyropgosphate, 1 mM β-glycerolphosphate, 1 mM Na3VO4, 1 μg/mL leupeptin, 1 mM PMSF) as previously described (Tan et al., 2002). Mouse brains were isolated under sterile conditions on ice and placed in ice-cold lysis buffer. […] Total Aβ1-42 species were detected by acid extraction of brain homogenates in 5 M guanidine buffer (ret), followed by a 1:10 dilution in lysis buffer. Soluble Aβ1-42 was directly detected in cultured cell lysates or brain homogenates prepared with lysis buffer described above by a 1:4 or 1:10 dilution, respectively. Aβ1-42 was quantified in these samples using the Aβ1-42 ELISA kit (BioSource, Camarillo, Calif.) in accordance with the manufacturer's instructions, except that standards included a 0.5 M guanidine buffer. […]
A general note: An ELISA detects its analyte on a solid surface through an enzyme-linked reagent.

Test [4] concerns transgenic APPsw mice. As to the kind of experiment: EGCG ICV injection of transgenic APPsw mice (cerebral Aβ, α-secretase activity). The note with it: ICV 10 μg/mouse once; 24 hours. Format: in vivo.
Method: Cultured cells were lysed in ice-cold-lysis buffer (20 mM Tris, pH 7.5, 150 mM NaCl, 1 mM EDTA, 1 mM EGTA, 1% v/v Triton X-100, 2.5 mM sodium pyropgosphate, 1 mM β-glycerolphosphate, 1 mM Na3VO4, 1 μg/mL leupeptin, 1 mM PMSF) as previously described (Tan et al., 2002). Mouse brains were isolated under sterile conditions on ice and placed in ice-cold lysis buffer. Brains were then sonicated on ice for approximately 3 min, allowed to stand for 15 min at 4° C., and centrifuged at 15,000 rpm for 15 min. Total Aβ1-42 species were detected by acid extraction of brain homogenates in 5 M guanidine buffer (ret), followed by a 1:10 dilution in lysis buffer. Soluble Aβ1-42 was directly detected in cultured cell lysates or brain homogenates prepared with lysis buffer described above by a 1:4 or 1:10 dilution, respectively. Aβ1-42 was quantified in these samples using the Aβ1-42 ELISA kit (BioSource, Camarillo, Calif.) in accordance with the manufacturer's instructions, except that standards included a 0.5 M guanidine buffer.
Cultured cells and mouse brain were lysed in ice-cold lysis buffer described above, and an aliquot corresponding to 50 μg of total protein was electrophoretically separated using 16.5% Tris-tricine gels. Electrophoresed proteins were then transferred to PVDF membranes (Bio-Rad), washed in dH2O, and blocked for 1 hour at ambient temperature in Tris-buffered saline (TBS; Bio-Rad) containing 5% (w/v) for non-fat dry milk. […] Densitometric analysis was done using the Fluor-S Multimager™ with Quantity One™ software (Bio-Rad). […] Antibodies used for Western blot included antibody 369 (1:1,000), anti-C-terminal APP antibody (1:500; Chemicon, Temecula, Calif.), BAM-10 (1:1,000; Sigma), 6E10 (1:1,000; Signet) or anti-Actin antibody (1:1,500; as an internal reference control; Roche). α-, β- and γ-secretase activities were quantified in cell lysates and mouse brain homogenates using available kits based on secretase-specific peptides conjugated to fluorogenic receptor molecules (R&D Systems, Minneapolis, Minn.). […]
The subject of test [5] is TNF-a converting enzyme (TACE). As to the kind of experiment: Western blot of TACE in APP-transfected N2a cells. Format: cell-based, murine. The note with it: in 3 to 4 hours following EGCG treatment, then rapidly cleaved through 8 hours.
Method: Cultured cells and mouse brain were lysed in ice-cold lysis buffer described above, and an aliquot corresponding to 50 μg of total protein was electrophoretically separated using 16.5% Tris-tricine gels. Electrophoresed proteins were then transferred to PVDF membranes (Bio-Rad), washed in dH2O, and blocked for 1 hour at ambient temperature in Tris-buffered saline (TBS; Bio-Rad) containing 5% (w/v) for non-fat dry milk. After blocking, membranes were hybridized for 1 hour at ambient temperature with various antibodies, including against the C- (369), N-terminus of APP (22C11), the N-terminus of Aβ (6E10), and ADAM10 and TACE (Calbiochem). […] Densitometric analysis was done using the Fluor-S Multimager™ with Quantity One™ software (Bio-Rad). […] Antibodies used for Western blot included antibody 369 (1:1,000), anti-C-terminal APP antibody (1:500; Chemicon, Temecula, Calif.), BAM-10 (1:1,000; Sigma), 6E10 (1:1,000; Signet) or anti-Actin antibody (1:1,500; as an internal reference control; Roche). α-, β- and γ-secretase activities were quantified in cell lysates and mouse brain homogenates using available kits based on secretase-specific peptides conjugated to fluorogenic receptor molecules (R&D Systems, Minneapolis, Minn.).
Test [6] has as its system ADAM9. As to the kind of experiment: Western blot of ADAM9 in SweAPP N2a cells. Type of test: cell-based, murine. The note with it: EGCG treatment; data not shown. The protocol: Cultured cells were lysed in ice-cold lysis buffer described above, and an aliquot corresponding to 50 μg of total protein was electrophoretically separated using 16.5% Tris-tricine gels. Electrophoresed proteins were then transferred to PVDF membranes (Bio-Rad, Richmond, Calif.), washed in ddH2O, and blocked for 1 h at ambient temperature in Tris-buffered saline (TBS; Bio-Rad) containing 5% (w/v) non-fat dry milk. After blocking, membranes were hybridized for 1 h at ambient temperature with various primary antibodies. Membranes were then washed 3 times for 5 min each in ddH2O and incubated for 1 h at ambient temperature with the appropriate HRP-conjugated secondary antibody (1:1,000, Pierce Biotechnology, Inc. Rockford, Ill.). All antibodies were diluted in TBS containing 5% (w/v) of non-fat dry milk. Blots were developed using the luminol reagent (Pierce Biotechnology). Densitometric analysis was done using the Fluor-S MultiImager™ with Quantity One™ software (Bio-Rad). For examining sAPP-α, conditioned medium was collected following treatment according to a modified protocol from Chen and Fernandez (Chen et al., 2004). sAPP-α was extracted using 3K Nanosep centrifugal filters (Pall Life Sciences, Ann Arbor, Mich.) and protein concentrate was prepared for the aforementioned electrophoresis. […]

With `O=C(O[C@@H]1Cc2c(O)cc(O)cc2O[C@@H]1c1cc(O)c(O)c(O)c1)c1cc(O)c(O)c(O)c1` [EGCG, (−)-epigallocatechin-3-gallate], the ADAM10 maturation result in test [1] was “dose-dependently increased”. In addition, the “secreted form of APP-α (sAPP-α) in cell cultured medium” value in test [2] (20 μM for 18 hours) was “markedly increased”. In addition, the “total APP and holo APP expression” value in test [2] (EGCG treated cells) is given as “not any changes”. Also, the “α-CTF generation, time course” value in test [2] (in 3 to 4 hours and then through to 8 hours after EGCG treatment) is on record as “drastically increased”. In addition, the “reduction of Aβ1-42 generation over control (PBS)” value in test [3] amounted to 40%. In addition, in test [4], the “elevation of α-secretase cleavage activity in brain” value is given as 32%, the “reduction of cerebral soluble Aβ levels” value is reported as 39% and the “α-secretase cleavage activity in brain (mean ± s.e.m.)” value is reported as 890.29±104.41 fluorescence units/mg of total protein. In addition, the TACE expression entry in test [5] is listed as “significantly increased”. In addition, the ADAM9 expression entry in test [6] is reported as “no significant effects”.
